What follows are compounds tested against SARS-CoV-2 3CLpro (Severe acute respiratory syndrome coronavirus 2, UniProt P0DTD1) (assay: biochemical). Details: inhibition of SARS-CoV-2 3CLpro; 15 nM 3CLpro, 25 μM fluorogenic substrate, 37° C.; read-out: Inhibitory Activity (IC50).

| Compound | IC50 [nM] |
| --- | --- |
| CNC(=O)c1cc(Br)cc([N+](=O)[O-])c1NC(C(C)C)C1CN(C(=O)c2cncc3ccccc23)C1 (stereo in doubt) [Compound 15, (R)-5-bromo-2-((1-(1-(isoquinoline-4-carbonyl)azetidin-3-yl)-2-methylpropyl)amino)-N-methyl-3-nitrobenzamide] | ≥ 10000 |
| CNC(=O)c1cc(Br)cc([N+](=O)[O-])c1N[C@@H]1CCCC[C@@H]1NC(=O)c1cncnc1 [Compound 2, N-((1S, 2R)-2-((4-bromo-2-(methylcarbamoyl)-6-nitrophenyl)amino)cyclohexyl) pyrimidine-5-carboxamide] | ≥ 10000 |
| CNC(=O)c1cc(Br)cc([N+](=O)[O-])c1N[C@@H]1CCCC[C@@H]1NC(=O)c1cncc(N)c1 [Compound 3, 5-amino-N-((1S, 2R)-2-((4-bromo-2-(methylcarbamoyl)-6-nitrophenyl)amino)cyclohexyl)nicotinamide] | 1000 to 10000 |
| CNC(=O)c1cc(Br)cc([N+](=O)[O-])c1N[C@@H]1CCCC[C@@H]1NC(=O)c1cncc(OC)c1 [Compound 4, N-((1S, 2R)-2-((4-bromo-2-(methylcarbamoyl)-6-nitrophenyl)amino)cyclohexyl)-5-methoxynicotinamide] | 1000 to 10000 |
| CNC(=O)c1cc(Br)cc([N+](=O)[O-])c1N[C@@H]1CCCC[C@@H]1NC(=O)c1cncc(CNC(=O)OC(C)(C)C)c1 [Compound 5, tert-butyl ((5-(((1S, 2R)-2-((4-bromo-2-(methylcarbamoyl)-6-nitrophenyl)amino)cyclohexyl)carbamoyl)pyridin-3-yl)methyl)carbamate] | ≥ 10000 |
| CNC(=O)c1cc(Br)cc([N+](=O)[O-])c1N[C@@H]1CCCC[C@@H]1NC(=O)c1cncc(CN)c1 [Compound 6, 5-(aminomethyl)-N-((1S,2R)-2-((4-bromo-2-(methylcarbamoyl)-6-nitrophenyl)amino)cyclohexyl) nicotinamide] | ≥ 10000 |
| CNC(=O)c1cc(Br)cc([N+](=O)[O-])c1N1CCC2(CN(C(=O)c3cncc4ccccc34)C2)C1 [Compound 10, 5-bromo-2-(2-(isoquinoline-4-carbonyl)-2,6-diazaspiro[3, 4]octan-6-yl)-N-methyl-3-nitrobenzamide] | ≥ 10000 |
| CC(C)C(Nc1c(-c2nnc[nH]2)cc(Br)cc1[N+](=O)[O-])C1CN(C(=O)c2cncc3ccccc23)C1 (centres unmarked) [Compound 17, (3-(1-((4-bromo-2-nitro-6-(4H-1,2,4-triazol-3-yl)phenyl)amino)-2-methylpropyl)azetidin-1-yl)(isoquinolin-4-yl)methanone] | 100 to 1000 |
| CNC(=O)c1cc(Br)cc([N+](=O)[O-])c1N[C@@H]1CCCCN(C(=O)c2cnc3ccccc3c2)C1 [Compound 20, (R)-5-bromo-N-methyl-3-nitro-2-((1-(quinoline-3-carbonyl)azepan-3-yl)amino)benzamide] | 100 to 1000 |
| CNC(=O)c1cc(Br)cc([N+](=O)[O-])c1N1CCC2(CCN(C(=O)c3cncnc3)C2)C1 (centres unmarked) [Compound 21] | ≥ 10000 |
| O=C(NC1CC(F)(F)C1)c1cc(Br)cc([N+](=O)[O-])c1N1CCC2(CCN(C(=O)c3cncc(C(F)(F)F)c3)C2)C1 (centres unmarked) [Compound 22, 5-bromo-N-(3,3-difluorocyclobutyl)-3-nitro-2-(7-(5-(trifluoromethyl)nicotinoyl)-2,7-diazaspiro[4.4]nonan-2-yl)benzamide] | 1000 to 10000 |
| COc1cncc(C(=O)N2CCC3(CCN(c4c(C(=O)NC5CC(F)(F)C5)cc(Br)cc4[N+](=O)[O-])C3)C2)c1 (centres unmarked) [Compound 23, 5-bromo-N-(3,3-difluorocyclobutyl)-2-(7-(5-methoxynicotinoyl)-2,7-diazaspiro[4.4]nonan-2-yl)-3-nitrobenzamide] | 1000 to 10000 |
| Cc1c(Cl)cncc1C(=O)N1CCC2(CCN(c3c(C(=O)NC4CC(F)(F)C4)cc(Br)cc3[N+](=O)[O-])C2)C1 (centres unmarked) [Compound 24, 5-bromo-2-(7-(5-chloro-4-methylnicotinoyl)-2,7-diazaspiro[4.4]nonan-2-yl)-N-(3,3-difluorocyclobutyl)-3-nitrobenzamide] | 1000 to 10000 |
| CNC(=O)c1cc(Br)cc([N+](=O)[O-])c1N1CC[C@H](CNC(=O)c2cncc3ccccc23)C1 [Compound 25, (R)-N-((1-(4-bromo-2-(methylcarbamoyl)-6-nitrophenyl)pyrrolidin-3-yl)methyl)isoquinoline-4-carboxamide] | 100 to 1000 |
| CNC(=O)c1cc(Br)cc([N+](=O)[O-])c1N[C@H]1CN(Cc2cncc3ccccc23)CCC1(F)F [Compound 32, (S)-5-bromo-2-((4,4-difluoro-1-(isoquinolin-4-ylmethyl)piperidin-3-yl)amino)-N-methyl-3-nitrobenzamide] | 100 to 1000 |
| COC1CN(C(=O)c2cc(Br)cc([N+](=O)[O-])c2N[C@H]2CN(C(=O)c3cncc4ccccc34)CCC2(F)F)C1 [Compound 38, (S)-(5-bromo-2-((4,4-difluoro-1-(isoquinoline-4-carbonyl)piperidin-3-yl)amino)-3-nitrophenyl)(3-methoxyazetidin-1-yl)methanone] | < 100 |

| Compound | IC50 [nM] |
| --- | --- |
| CNC(=O)c1cc(Br)cc([N+](=O)[O-])c1N[C@H]1CN(C(=O)c2cncc(-n3cccn3)c2)CCC1(F)F [Compound 39, (S)-2-((1-(5-(1H-pyrazol-1-yl)nicotinoyl)-4,4-difluoropiperidin-3-yl)amino)-5-bromo-N-methyl-3-nitrobenzamide] | 100 to 1000 |
| NC(=O)c1cc(Br)cc([N+](=O)[O-])c1N[C@H]1CN(C(=O)c2cncc3ccccc23)CCC1(F)F [Compound 49, (S)-5-bromo-2-((4,4-difluoro-1-(isoquinoline-4-carbonyl)piperidin-3-yl)amino)-3-nitrobenzamide] | < 100 |
| CNC(=O)c1cc(Br)cc([N+](=O)[O-])c1N[C@H]1CN(C(=O)c2cncc3ccccc23)C[C@@H]1C [Compound 50, 5-bromo-2-[[(3R, 4S)-1-(isoquinoline-4-carbonyl)-4-methyl-pyrrolidin-3-yl]amino]-N-methyl-3-nitro-benzamide] | < 100 |
| COC(=O)c1cc(Br)cc([N+](=O)[O-])c1N[C@@H]1CCCC[C@@H]1NC(=O)c1cncc2ccccc12 [Compound 51, methyl 5-bromo-2-(((1R, 2S)-2-(isoquinoline-4-carboxamido)cyclohexyl)amino)-3-nitrobenzoate] | 100 to 1000 |
| O=C(O)c1cc(Br)cc([N+](=O)[O-])c1N[C@@H]1CCCC[C@@H]1NC(=O)c1cncc2ccccc12 [Compound 52, 5-bromo-2-(((1R, 2S)-2-(isoquinoline-4-carboxamido)cyclohexyl)amino)-3-nitrobenzoic acid] | 1000 to 10000 |
| NNC(=O)c1cc(Br)cc([N+](=O)[O-])c1N[C@@H]1CCCC[C@@H]1NC(=O)c1cncc2ccccc12 [Compound 54, N-((1S,2R)-2-((4-bromo-2-(hydrazinecarbonyl)-6-nitrophenyl)amino)cyclohexyl)isoquinoline-4-carboxamide] | 1000 to 10000 |
| O=C(NC1CC(F)(F)C1)c1cc(Br)cc([N+](=O)[O-])c1N[C@@H]1CCCC[C@@H]1NC(=O)c1cncc2ccccc12 [Compound 56, N-((1S, 2R)-2-((4-bromo-2-((3,3-difluorocyclobutyl)carbamoyl)-6-nitrophenyl)amino)cyclohexyl)isoquinoline-4-carboxamide] | < 100 |
| CNC(=O)c1cc(Br)cc(S(C)(=O)=O)c1N[C@@H]1CCCC[C@@H]1NC(=O)c1cncc2ccccc12 [Compound 57, N-((1S,2R)-2-((4-bromo-2-(methylcarbamoyl)-6-(methylsulfonyl)phenyl)amino)cyclohexyl) isoquinoline-4-carboxamide] | ≥ 10000 |
| CNC(=O)c1cc(Br)cc([N+](=O)[O-])c1NC(C1CC1)C1CN(C(=O)c2cncc3ccccc23)C1 (centres unmarked) [Compound 58, 5-bromo-2-((cyclopropyl(1-(isoquinoline-4-carbonyl)azetidin-3-yl)methyl)amino)-N-methyl-3-nitrobenzamide] | 100 to 1000 |
| CNC(=O)c1cc(Br)cc([N+](=O)[O-])c1NC1(C2CN(C(=O)c3cncc4ccccc34)C2)CC1 [Compound 63, 5-bromo-2-((1-(1-(isoquinoline-4-carbonyl)azetidin-3-yl)cyclopropyl)amino)-N-methyl-3-nitrobenzamide] | 1000 to 10000 |
| CC(C)C(Nc1c(-c2ncco2)cc(Br)cc1[N+](=O)[O-])C1CN(C(=O)c2cncc3ccccc23)C1 (centres unmarked) [Compound 65, (3-(1-((4-bromo-2-nitro-6-(oxazol-2-yl)phenyl)amino)-2-methylpropyl)azetidin-1-yl)(isoquinolin-4-yl)methanone] | 1000 to 10000 |
| CNC(=O)c1cc(Br)cc([N+](=O)[O-])c1N1CCc2[nH]nc(-c3cncc4ccccc34)c2C1 [Compound 69, 5-bromo-2-(3-(isoquinolin-4-yl)-1,4,6,7-tetrahydro-5H-pyrazolo[4,3-c]pyridin-5-yl)-N-methyl-3-nitrobenzamide] | 1000 to 10000 |
| CNC(=O)c1cc(Br)cc([N+](=O)[O-])c1NC(C(C)C)C1CN(C(=O)c2cncnc2)C1 (centres unmarked) [Compound 71, 5-bromo-N-methyl-2-((2-methyl-1-(1-(pyrimidine-5-carbonyl)azetidin-3-yl)propyl)amino)-3-nitrobenzamide] | 1000 to 10000 |
| CNC(=O)c1cc(Br)cc([N+](=O)[O-])c1NC(C(C)C)C1CN(C(=O)c2cncc(C(F)(F)F)c2)C1 (centres unmarked) [Compound 73, 5-bromo-N-methyl-2-((2-methyl-1-(1-(5-(trifluoromethyl)nicotinoyl)azetidin-3-yl)propyl)amino)-3-nitrobenzamide] | 1000 to 10000 |
| Cc1c(F)cncc1C(=O)N1CCC2(CCN(c3c(C(=O)NC4CC(F)(F)C4)cc(Br)cc3[N+](=O)[O-])C2)C1 (centres unmarked) [Compound 76, 5-bromo-N-(3,3-difluorocyclobutyl)-2-(7-(5-fluoro-4-methylnicotinoyl)-2,7-diazaspiro[4.4]nonan-2-yl)-3-nitrobenzamide] | 1000 to 10000 |
| CNC(=O)c1cc(Br)cc([N+](=O)[O-])c1NCC1CN(C(=O)c2cncc3ccccc23)CC1(F)F (centres unmarked) [Compound 77, 5-bromo-2-(((4,4-difluoro-1-(isoquinoline-4-carbonyl)pyrrolidin-3-yl)methyl)amino)-N-methyl-3-nitrobenzamide] | 1000 to 10000 |

— patent US20260315452A1, “PROTEASE INHIBITORS AND USES THEREOF” (priority 2023, published 2026)
